From PubChem BioAssay AID270 (DTP/NCI, 2004)
Several values for one entry are separate records, joined by “and”; a condition that tells them apart may be missing. Identical values can stand only once. Inconclusive results are not listed.

Test system: BDF1 mice, s.c. Lewis lung carcinoma, T/C %
Assay: NCI In Vivo Anticancer Drug Screen. Data for tumor model Lewis Lung Carcinoma (subcutaneous) in B6D2F1 (BDF1) mice
Summary of the method: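 First, mice carry a transplantable tumor. Next, groups receive either compound or vehicle. Finally, survival or tumor dimensions in the dosed animals are divided by the corresponding control figure.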

## CCN(CC)CCN1C(=O)c2cccc3cccc(c23)C1=O
endpoint: mean tumor weight, dose: 48.0 mg/kg/injection, schedule: Q01DX011 (ip), vehicle: saline, higher = larger tumour
  T/C: 111 % of control
endpoint: mean tumor weight, dose: 73.0 mg/kg/injection, schedule: Q01DX011 (ip), vehicle: saline, higher = larger tumour
  T/C: 87 % of control
endpoint: mean tumor weight, dose: 110.0 mg/kg/injection, schedule: Q01DX011 (ip), vehicle: saline, higher = larger tumour
  T/C: 69 % of control

## O=C1c2ccccc2C(=O)c2c(NCCNCCO)ccc(NCCNCCO)c21
endpoint: median survival time, dose: 0.25 mg/kg/injection, schedule: Q01DX009 (ip), vehicle: Klucel (hydroxypropylcellulose) (HPC), higher = longer survival
  T/C: 120 % of control
endpoint: median survival time, dose: 0.25 mg/kg/injection, schedule: Q01DX009 (ip), vehicle: water, higher = longer survival
  T/C: 106 % of control
endpoint: median survival time, dose: 0.5 mg/kg/injection, schedule: Q01DX009 (ip), vehicle: Klucel (hydroxypropylcellulose) (HPC), higher = longer survival
  T/C: 123 % of control
endpoint: median survival time, dose: 0.5 mg/kg/injection, schedule: Q01DX009 (ip), vehicle: saline with Tween-80, higher = longer survival
  T/C: 86 % of control
endpoint: median survival time, dose: 0.5 mg/kg/injection, schedule: Q01DX009 (ip), vehicle: saline, higher = longer survival
  T/C: 114 % of control
endpoint: median survival time, dose: 0.5 mg/kg/injection, schedule: Q01DX009 (ip), vehicle: water, higher = longer survival
  T/C: 109 % of control
endpoint: median survival time, dose: 1.0 mg/kg/injection, schedule: Q01DX009 (ip), vehicle: Klucel (hydroxypropylcellulose) (HPC), higher = longer survival
  T/C: 101 % of control
endpoint: median survival time, dose: 1.0 mg/kg/injection, schedule: Q01DX009 (ip), vehicle: saline with Tween-80, higher = longer survival
  T/C: 115 % of control
endpoint: median survival time, dose: 1.0 mg/kg/injection, schedule: Q01DX009 (ip), vehicle: saline, higher = longer survival
  T/C: 92 % of control and 94 % of control and 108 % of control
endpoint: median survival time, dose: 1.0 mg/kg/injection, schedule: Q01DX009 (ip), vehicle: water, higher = longer survival
  T/C: 89 % of control
endpoint: median survival time, dose: 2.0 mg/kg/injection, schedule: Q01DX009 (ip), vehicle: Klucel (hydroxypropylcellulose) (HPC), higher = longer survival
  T/C: 89 % of control
endpoint: median survival time, dose: 2.0 mg/kg/injection, schedule: Q01DX009 (ip), vehicle: acid diluted with saline, higher = longer survival
  T/C: 89 % of control
endpoint: median survival time, dose: 2.0 mg/kg/injection, schedule: Q01DX009 (ip), vehicle: saline with Tween-80, higher = longer survival
  T/C: 95 % of control
endpoint: median survival time, dose: 2.0 mg/kg/injection, schedule: Q01DX009 (ip), vehicle: saline, higher = longer survival
  T/C: 102 % of control
endpoint: median survival time, dose: 2.0 mg/kg/injection, schedule: Q01DX009 (ip), vehicle: water, higher = longer survival
  T/C: 96 % of control and 115 % of control
endpoint: median survival time, dose: 4.0 mg/kg/injection, schedule: Q01DX009 (ip), vehicle: acid diluted with saline, higher = longer survival
  T/C: 95 % of control
endpoint: median survival time, dose: 4.0 mg/kg/injection, schedule: Q01DX009 (ip), vehicle: other, higher = longer survival
  T/C: 106 % of control
endpoint: median survival time, dose: 4.0 mg/kg/injection, schedule: Q01DX009 (ip), vehicle: saline, higher = longer survival
  T/C: 91 % of control
endpoint: median survival time, dose: 4.0 mg/kg/injection, schedule: Q01DX009 (ip), vehicle: water, higher = longer survival
  T/C: 88 % of control and 105 % of control
endpoint: median survival time, dose: 8.0 mg/kg/injection, schedule: Q01DX009 (ip), vehicle: Klucel (hydroxypropylcellulose) (HPC), higher = longer survival
  T/C: 109 % of control and 120 % of control
endpoint: median survival time, dose: 8.0 mg/kg/injection, schedule: Q01DX009 (ip), vehicle: acid diluted with saline, higher = longer survival
  T/C: 90 % of control
endpoint: median survival time, dose: 8.0 mg/kg/injection, schedule: Q01DX009 (ip), vehicle: other, higher = longer survival
  T/C: 103 % of control
endpoint: median survival time, dose: 8.0 mg/kg/injection, schedule: Q01DX009 (ip), vehicle: saline, higher = longer survival
  T/C: 95 % of control
endpoint: median survival time, dose: 8.0 mg/kg/injection, schedule: Q01DX009 (ip), vehicle: water, higher = longer survival
  T/C: 88 % of control
endpoint: median survival time, dose: 10.0 mg/kg/injection, schedule: Q## X004 (ip), vehicle: saline, higher = longer survival
  T/C: 97 % of control
endpoint: median survival time, dose: 16.0 mg/kg/injection, schedule: Q01DX009 (ip), vehicle: Klucel (hydroxypropylcellulose) (HPC), higher = longer survival
  T/C: 107 % of control
endpoint: median survival time, dose: 16.0 mg/kg/injection, schedule: Q01DX009 (ip), vehicle: acid diluted with saline, higher = longer survival
  T/C: 100 % of control
endpoint: median survival time, dose: 16.0 mg/kg/injection, schedule: Q01DX009 (ip), vehicle: saline, higher = longer survival
  T/C: 99 % of control
endpoint: median survival time, dose: 16.0 mg/kg/injection, schedule: Q01DX009 (ip), vehicle: water, higher = longer survival
  T/C: 102 % of control
endpoint: median survival time, dose: 20.0 mg/kg/injection, schedule: Q## X004 (ip), vehicle: saline, higher = longer survival
  T/C: 93 % of control
endpoint: median survival time, dose: 40.0 mg/kg/injection, schedule: Q## X004 (ip), vehicle: saline, higher = longer survival
  T/C: 93 % of control

## COc1cc(O)c2c(c1)Cc1cc(C)cc(O)c1C2=O
endpoint: median survival time, dose: 0.1 mg/kg/injection, schedule: Q01DX009 (ip), vehicle: saline with Tween-80, higher = longer survival
  T/C: 117 % of control
endpoint: median survival time, dose: 0.2 mg/kg/injection, schedule: Q01DX009 (ip), vehicle: saline with Tween-80, higher = longer survival
  T/C: 120 % of control and 122 % of control
endpoint: median survival time, dose: 0.4 mg/kg/injection, schedule: Q01DX009 (ip), vehicle: saline with Tween-80, higher = longer survival
  T/C: 108 % of control
endpoint: median survival time, dose: 6.25 mg/kg/injection, schedule: Q01DX009 (ip), vehicle: saline with Tween-80, higher = longer survival
  T/C: 110 % of control
